Source: publication PMC7587979 (Molecules, 2020)
Several values for one entry are separate records, joined by “and”; a condition that tells them apart may be missing. Identical values can stand only once. Like-named read-outs stand apart in the source and are kept apart here.

Assays:
[1] = system: CQ-resistant P. falciparum FcB1/Colombia strain; experiment: In vitro growth inhibition of P. falciparum ([3H]-hypoxanthine incorporation); type: cell-based, Plasmodium falciparum; conditions: for fold more active in comparison to the diester compound 17: ratio of IC50 against P. falciparum FcB1 versus 17; for times more active than FSM: ratio of IC50 against P. falciparum FcB1 versus FSM
Method: Specifically, IC50 (μM) values for the antiplasmodial activities were determined from four independent experiments as the mean values ± standard deviations. IC50 (μM) values for the cytotoxicity activities were determined from two independent experiments as the mean values ± standard deviations. IC50, SIs (ratio between IC50 (μM) of cytotoxicity/IC50 (μM) of the antiplasmodial activity), and XLogGP3 values for the FSM derivatives, hybrid, and conjugates are reported in Table 1.
The chloroquine-resistant FcB1/Colombia strain of Plasmodium falciparum was maintained in vitro on human erythrocytes in RPMI 1640 medium supplemented by 8% (v/v) heat-inactivated human serum, at 37 °C, under an atmosphere of 3% CO2, 6% O2, and 91% N2 [45]. In vitro drug susceptibility assays were measured by [^3H]-hypoxanthine incorporation. Drug stock solutions were prepared in DMSO. Compounds were serially diluted two-fold with 100 μL of culture medium in 96-well plates. Asynchronous parasite cultures (100 μL, 1% parasitaemia and 1% final hematocrite) were then added to each well and incubated for 24 h at 37 °C prior to the addition of 0.5μCi of [^3H]-hypoxanthine (GE Healthcare, France, 1 to 5Ci·mmol/mL) per well [42]. After a further incubation of 24 h, plates were frozen and thawed. Cell lysates were then collected onto fiberglass filters and counted in a liquid scintillation spectrometer. The growth inhibition for each drug concentration was determined by comparison of the radioactivity incorporated in the treated culture with that in the control culture maintained on the same plate. The IC50 value was obtained from the drug concentration–response curve and the results were expressed as the mean values ± standard deviations determined from several independent experiments. Chloroquine and artemisinin were used as antimalarial drug controls.

[2] = system: human primary fibroblasts (cell line AB943); experiment: Cytotoxicity evaluation (resazurin) and selectivity index; type: cell-based; conditions: for SI: SI = IC50 (AB943)/IC50 (P.f. FcB1); for cytotoxicity in words: judged from SI, AB943 fibroblasts
Method: Moreover, their cytotoxicity was measured, as previously reported, upon the primary human fibroblast cell line AB943, which allowed the calculation of their selectivity index (SI).
Specifically, IC50 (μM) values for the antiplasmodial activities were determined from four independent experiments as the mean values ± standard deviations. IC50 (μM) values for the cytotoxicity activities were determined from two independent experiments as the mean values ± standard deviations.
Cytotoxicity evaluation was performed upon human primary fibroblasts (cell line AB943). Assays were realized in 96-well plates in DMEM + Glutamax without phenol red medium (Gibco) containing 25 mM HEPES, pH 7.3, 10% fetal calf serum under a 5% CO2 atmosphere, at 37 °C. After trypsin treatment, AB943 cells were seeded at 2000 cells per well in 100 µL. After 24 h of incubation, drugs diluted in culture medium were added (100 µL per well). Drug stock solutions were prepared in dimethyl sulfoxide (DMSO). The final DMSO concentration in the cultures remained below 1%. Control cultures were constituted of cultures treated with DMSO instead of drug. The cytotoxicity assay was based on the conversion of a redo-sensitive dye (resazurin) to a fluorescent product by viable cells. […] The percentage of inhibition of cell growth was calculated by comparing the fluorescence of cells maintained in the presence of drug to that in the absence of drug.

[3] = set-up: method as in PMID 10477522, PMID 17887769; conditions: in vitro and in a mouse model; cited from earlier work
[4] = CQ-resistant P. falciparum FcB1/Colombia strain, mean ± SD of four independent experiments, read-out: IC50

Molecule | IC50 ([1]; Plasmodium falciparum, FCB1) [nM] | SI [2] | further results
C[C@@H]1CC[C@H]2[C@@H](C)C(=O)O[C@@H]3O[C@@]4(C)CC[C@@H]1[C@]32OO4 [ART, artemisinin, reference compound] |  |  | IC50 ([1]; Plasmodium falciparum, CQ-resistant P. falciparum FcB1/Colombia strain, control drugs, unit (nM), read-out: IC50): 55 ± 13.6 nM
CCN(CC)CCCC(C)Nc1ccnc2cc(Cl)ccc12 (stereo not drawn) [CQ, Chloroquine, reference compound] | 72 ± 7.4 |  | 
CCOP(=O)(CCCN(O)C(C)=O)OCC [Compound 17] |  |  | IC50 [1, 4]: > 100000 nM
CCOP(=O)(CCCN(O)C(=O)CCC(=O)N(O)CCCP(=O)(OCC)OCC)OCC [Compound 18, Tetraethyl-((succinylbis(hydroxyazanediyl))bis (propane-3,1-diyl))bis(phosphonate)] | > 100000 |  | 
CCOP(=O)(CCCN(O)C(=O)CCC(=O)N1CCN(c2ccnc3cc(Cl)ccc23)CC1)OCC [Compound 19, Diethyl (3-(4-(4-(7-chloroquinolin-4-yl)piperazin-1-yl)-N-hydroxy-4-oxobutanamido)propyl) phosphonate] | 2700 ± 500 | 23.9 | fold more active in comparison to the diester compound 17 [1]: 25–40; times more active than FSM [1]: 3.5–5.5
CCOP(=O)(CCCN(O)C(=O)CCC(=O)NCCNc1ccnc2cc(Cl)ccc12)OCC.O=C(O)C(F)(F)F [Compound 20, 7-Chloro-N-(2-(4-((3-(diethoxyphosphoryl)propyl)(hydroxy)amino)-4oxobutanamido)ethyl)quinolin-4-aminium 2,2,2-trifluoroacetate] | 4200 ± 900 | 23.7 | fold more active in comparison to the diester compound 17 [1]: 25–40; times more active than FSM [1]: 3.5–5.5
CCOP(=O)(CCCN(O)C(=O)CC[C@H]1O[C@@H]2O[C@]3(C)CC[C@H]4[C@H](C)CC[C@@H]([C@H]1C)C24OO3)OCC [Compound 21, Diethyl (3-(N-hydroxy-3-((3S,5aS,6R,8aS,9R,10R,12R)-3,6,9-trimethyldecahydro-12H-3, 12-epoxy[1,2]dioxepino[4,3-i]isochromen-10-yl)propanamido)propyl)phosphonate] | 28000 ± 11600 |  | 
CCOP(=O)(CCCN(O)C(=O)CCC(=O)NNC(=O)OC(C)(C)C)OCC [Compound 26, Tert-butyl 2-(4-((3-(diethoxyphosphoryl)propyl)(hydroxy)amino)-4-oxobutanoyl) hydrazine-1-carboxylate] | 86000 ± 1400 |  | 
CCOP(=O)(CCCN(O)C(=O)CCC(=O)Nc1ccccc1N)OCC [Compound 27, Diethyl(3-(4-((2-aminophenyl)amino)-N-hydroxy-4-oxobutanamido)propyl) phosphonate] | 81000 ± 2800 |  | 
CCOP(=O)(CCCN(O)C(=O)CCC(=O)N(Cc1ccccc1)Cc1ccccc1)OCC [Compound 28, Diethyl (3-(4-(dibenzylamino)-N-hydroxy-4-oxobutanamido)propyl)phosphonate] | 38700 ± 10000 |  | 
CCOP(=O)(CCCN(O)C(=O)CCC(=O)Nc1ccc(Cc2ccc(NC(=O)OC(C)(C)C)cc2)cc1)OCC [Compound 29, Tert-butyl(4-(4-(4-((3-(diethoxyphosphoryl)propyl)(hydroxy)amino)-4-oxobutanamido)benzyl)phenyl) carbamate] | 22700 ± 1900 | 1.7 | cytotoxicity in words [2]: cytotoxic
CCOP(=O)(CCCN(O)C(=O)CCC(=O)NCc1ccccc1)OCC [Compound 30, Diethyl (3-(4-(benzylamino)-N-hydroxy-4-oxobutanamido)propyl) phosphonate] | > 100000 |  | 
CCOP(=O)(CCCN(O)C(=O)CCC(=O)NC(c1ccccc1)c1ccccc1)OCC [Compound 31, Diethyl(3-(4-(benzhydrylamino)-N-hydroxy-4-oxobutanamido)propyl)phosphonate] | 44200 ± 9500 |  | 
CCOP(=O)(CCCN(O)C(=O)CCC(=O)N1CCN(C)CC1)OCC [Compound 32, Diethyl (3-(N-hydroxy-4-(4-methylpiperazin-1-yl)-4-oxobutanamido)propyl) phosphonate] | > 100000 |  | 
CCOP(=O)(CCCN(O)C(=O)CCC(=O)N1CCNCC1)OCC [Compound 33, 4-(4-((3-(Diethoxyphosphoryl)propyl)(hydroxy)amino)-4-oxobutanoyl)piperazin-1-ium 2,2,2-trifluoroacetate] | > 100000 |  | 
CCOP(=O)(CCCNc1ccccc1N)OCC [Compound 34, Diethyl (3-((2-aminophenyl)amino)propyl)phosphonate] |  | 3.7 | IC50 [1, 4]: 8200 ± 2700 nM; cytotoxicity in words [2]: cytotoxic
Nc1ccccc1NCCCP(=O)(O)O [Compound 35, (3-((2-Aminophenyl)amino)propyl)phosphonic acid] | > 100000 |  | 
CC(=O)N(O)CCCP(=O)(O)O [FR900098, reference compound] | 7000 | >14.2 | activity relative to FSM [3]: about twice as active as FSM
O=CN(O)CCCP(=O)(O)O [FSM, fosmidomycin, reference compound] |  | >6.6 | fold less active than FR900098 ([1]; P. falciparum FcB1): 2; IC50 ([1]; Plasmodium falciparum, CQ-resistant P. falciparum FcB1/Colombia strain, mean ± SD of four independent experiments, read-out: IC50): 15000 ± 1700 nM
Diethyl(3-(4-(bis(4-(3-((3S,5aS,6R,8aS,9R,10R,12R)-3,6,9-trimethyldecahydro-12H-3,12-epoxy[1,2]dioxepino[4,3-i]isochromen-10-yl)propanamido)butyl)amino)-N-hydroxy-4-oxobutanamido)propyl)phosphonate [Compound 23] |  | 34 | IC50 [1, 4]: 650 ± 260 nM; times more active than FSM [1]: 23–41
Diethyl(3-(N-hydroxy-4-oxo-4-((4-(3-((3S,5aS,6R,8aS,9R,10R,12R)-3,6,9-trimethyldecahydro-12H-3,12-epoxy[1,2]dioxepino[4,3-i]isochromen-10-yl)propanamido)butyl)(3-(3-((3S,5aS,6R,8aS,9R,10R,12R)-3,6,9-trimethyldecahydro-12H-3,12-epoxy[1,2]dioxepino[4,3-i]isochromen-10-yl)propanamido)propyl)amino) butanamido)propyl)phosphonate [Compound 22] |  | 94 and 94.1 | IC50 [1, 4]: 360 ± 90 nM; times more active than FSM [1]: 23–41
